Literature values as cited in US20130171256A1 (CIMA LABS Inc., priority 2010, published 2013).

How the values were obtained:
Conditions in all cases: preclinical studies
dopamine reuptake = system: dopamine reuptake
[1] = system: neuronal norepinephrine reuptake
[2] = system: neuronal serotonin reuptake

In the case of `COc1ccc(C(CN(C)C)C2(O)CCCCC2)cc1` (centres unmarked) [Venlafaxine], the “inhibition of dopamine reuptake” value (dopamine reuptake) is listed as “weak inhibitors” and the “inhibition of neuronal norepinephrine reuptake” value [1] is listed as “potent inhibitors”.
For `CN(C)CC(c1ccc(O)cc1)C1(O)CCCCC1` (centres unmarked) [O-desmethylvenlafaxine], the “inhibition of dopamine reuptake” value (dopamine reuptake) is listed as “weak inhibitors”, the “inhibition of neuronal norepinephrine reuptake” value [1] is listed as “potent inhibitors” and the “inhibition of neuronal serotonin reuptake” value [2] is listed as “potent inhibitors”.
